The values that follow come from US6812235B2, “Beta-alanine derivatives and their use as receptor anatgonists” (Fujisawa Pharmaceutical Co., Ltd., priority 2000, dated 2004).

pIC50: −log10 of the molar value.

The test system of this assay is platelet aggregation induced by ADP in platelet rich plasma (PRP). Nature of the assay: Effect on platelet aggregation induced by adenosine diphosphate (ADP). The following applies: human PRP 3×10^8 platelets/ml; test compound in water, 2 minutes at 37° C.; ADP final 2.5 μM; aggregometer; read-out: IC50 (inhibition of ADP-induced platelet aggregation). Type of assay: cell-based. As for the experimental part:
Test: Effect on Platelet Aggregation Induced by Adenosine Diphosphate (ADP)
Platelet rich plasma (PRP) which contains 3×10^8 platelets/ml was prepared from human blood. To the 225 μl of PRP, 25 μl of the solution of the test compound in water was added, and then stirred for 2 minutes at 37° C. To the solution 5 μl of ADP (final 2.5 μM) was added as an aggregation inducer. Aggregation was measured by using an aggregometor (NBS HEMA-TRACER 801). Activity of […] (test compound) was expressed as IC50 value, i.e., dose required for […] of platelet aggregation.

On to `COC(=O)C(=O)N[C@@H](CNC(=O)[C@@H]1CCCN(C(=O)CCC2CCNCC2)C1)C(=O)O` [Example 25, N-[(3R)-1-{3-(4-piperidyl)-propionyl}-3-piperidylcarbonyl]-2(S)-methoxyoxalylamino-β-alanine], for which the negative-log IC50 (pIC50) was 7.07.
